Values quoted from earlier work as cited in patent US6500450B1, “Composition for treating migraine headaches” (priority 1998, dated 2002).
Where a name gives a salt, the structure may show the parent alone.

Key:
[1] = test system: migraine; conditions: in vivo
[2] = test system: patients with migraine
[3] = test system: migraine occurrence in patients
[4] = test system: patients with recurrent migraines; conditions: 49 patients
[5] = test system: moderate to severe migraine headaches
[6] = 400 mg/day with breakfast for at least three months

In the case of `CC(C)NCC(O)COc1cccc2ccccc12` (stereo not drawn) [Propranolol], the “efficacy in migraine prophylaxis” value [1] is listed as “effective” and the side effects [1] is listed as “fatigue, depression, impotence, insomnia, dizziness, and cold extremities”.

In the case of `CN1C[C@H](C(=O)N[C@]2(C)O[C@@]3(O)[C@@H]4CCCN4C(=O)[C@H](Cc4ccccc4)N3C2=O)C=C2c3cccc4[nH]cc(c34)C[C@H]21` [ergotamine, ergotamine tartrate], the “patients with complete headache relief within three hours of taking the drug” value ([2]; 1-mg rectal suppository, patients with migraine) is listed as 73%, the “consequence of frequent use” value ([2]; frequent use of the drug) is listed as “rebound headache” and the side effects ([2]; human, in vivo) is listed as “nausea, vomiting, abdominal pain, muscle cramps, and occasionally, distal paresthesias”.

In the case of `CC[C@@H](CO)NC(=O)[C@@H]1C=C2c3cccc4c3c(cn4C)C[C@H]2N(C)C1` [methysergide, methysergide maleate], the “patients in whom migraine occurrence is reduced by more than half” value ([3]; 6 mg dose, migraine prophylaxis) is listed as 60% and the “adverse effect of long-term use” value ([3]; long-term use) is listed as “associated with retroperitoneal fibrosis”.

In the case of `Cc1cc2nc3c(=O)[nH]c(=O)nc-3n(C[C@H](O)[C@H](O)[C@H](O)CO)c2cc1C` [riboflavin], the side effects ([4]; 400 mg/day for at least three months) is given as “One patient stopped treatment because of gastric intolerance, but no other side effects were reported”, the “fall in the mean number of migraine attacks” value [4, 6] is given as 67% and the “improvement of migraine severity” value [4, 6] is given as 68%.

For `CNS(=O)(=O)Cc1ccc2[nH]cc(CCN(C)C)c2c1` [sumatriptan], the “reduction of the intensity of moderate to severe migraine headaches” value ([5]; dose of six milligrams, injectable) is given as 70% and the side effects ([5]; stated for this type of drug) is given as “distal paresthesias, tingling, heaviness, and a sensation of pressure”.
